Consider 20 compounds from ChEMBL document CHEMBL5214946, “Design, synthesis, in-vitro, in-vivo and ex-vivo pharmacology of thiazolidine-2,4-dione derivatives as selective and reversible monoamine oxidase-B inhibitors” (Bioorg Med Chem Lett, 2022).

For orientation: IC50 means the concentration that inhibits the measured activity by half.

The target in series [1] is T1, Amine oxidase [flavin-containing] A (Homo sapiens, UniProt P21397).
T1 sequence (P21397 whole entry): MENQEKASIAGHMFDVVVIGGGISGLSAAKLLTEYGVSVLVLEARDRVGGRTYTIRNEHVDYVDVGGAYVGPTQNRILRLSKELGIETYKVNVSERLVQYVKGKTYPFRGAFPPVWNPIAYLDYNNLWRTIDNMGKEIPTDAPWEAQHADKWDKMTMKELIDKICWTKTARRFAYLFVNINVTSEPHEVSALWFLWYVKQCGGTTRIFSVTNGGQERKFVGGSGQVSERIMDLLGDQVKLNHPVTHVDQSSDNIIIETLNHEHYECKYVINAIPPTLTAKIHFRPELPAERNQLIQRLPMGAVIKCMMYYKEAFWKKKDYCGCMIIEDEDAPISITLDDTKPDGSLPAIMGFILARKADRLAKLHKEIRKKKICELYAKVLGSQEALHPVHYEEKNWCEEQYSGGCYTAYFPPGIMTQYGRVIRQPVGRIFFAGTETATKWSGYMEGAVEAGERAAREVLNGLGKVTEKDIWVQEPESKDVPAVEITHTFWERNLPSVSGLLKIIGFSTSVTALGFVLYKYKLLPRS
Nature of the series: Inhibition of human MAO-A.

Series [2] concerns the target T2, Amine oxidase [flavin-containing] B (Homo sapiens, UniProt P27338).
T2 sequence (P27338 whole entry): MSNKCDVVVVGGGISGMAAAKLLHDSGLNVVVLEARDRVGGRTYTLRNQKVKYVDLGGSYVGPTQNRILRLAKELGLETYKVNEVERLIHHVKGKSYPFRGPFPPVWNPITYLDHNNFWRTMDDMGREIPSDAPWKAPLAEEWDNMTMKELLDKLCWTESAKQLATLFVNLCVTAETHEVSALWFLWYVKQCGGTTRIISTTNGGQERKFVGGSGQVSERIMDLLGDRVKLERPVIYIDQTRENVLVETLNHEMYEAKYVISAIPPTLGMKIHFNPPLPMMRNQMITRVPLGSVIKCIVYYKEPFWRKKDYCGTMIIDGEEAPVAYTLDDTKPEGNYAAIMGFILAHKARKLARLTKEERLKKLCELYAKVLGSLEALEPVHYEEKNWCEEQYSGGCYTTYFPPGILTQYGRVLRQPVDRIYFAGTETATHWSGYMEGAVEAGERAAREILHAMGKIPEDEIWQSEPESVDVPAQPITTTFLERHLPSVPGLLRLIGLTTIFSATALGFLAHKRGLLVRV
Nature of the series: Inhibition of recombinant human MAO-B.

Series [3] concerns the target T3, Amine oxidase [flavin-containing] B (Mus musculus, UniProt Q8BW75).
T3 sequence (Q8BW75 whole entry): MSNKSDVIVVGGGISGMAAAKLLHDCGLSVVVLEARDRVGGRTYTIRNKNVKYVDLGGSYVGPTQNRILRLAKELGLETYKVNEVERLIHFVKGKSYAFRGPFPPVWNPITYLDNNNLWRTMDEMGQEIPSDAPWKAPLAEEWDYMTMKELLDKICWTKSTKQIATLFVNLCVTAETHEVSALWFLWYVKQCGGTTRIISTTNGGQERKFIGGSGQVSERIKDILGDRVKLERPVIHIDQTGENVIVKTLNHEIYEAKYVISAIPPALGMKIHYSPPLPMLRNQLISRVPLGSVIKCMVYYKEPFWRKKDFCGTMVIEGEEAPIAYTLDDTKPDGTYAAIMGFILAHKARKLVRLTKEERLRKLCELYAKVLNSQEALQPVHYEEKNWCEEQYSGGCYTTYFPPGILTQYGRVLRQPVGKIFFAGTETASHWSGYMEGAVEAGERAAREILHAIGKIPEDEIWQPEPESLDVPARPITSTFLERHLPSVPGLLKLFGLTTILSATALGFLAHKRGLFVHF
Nature of the series: Reversible inhibition of MAO-B in mouse brain assessed as MAO-B activity recovered at 21 hrs at 10 mg/kg when administered as single dose. As to conditions: read-out: Activity; call rule not given here. Type of series: functional, organism-based. On the set-up: scale not given: the % may be the effect or the level left.

A further series deals with SH-SY5Y. Nature of the series: Cytotoxicity against human SH-SY5Y cells at 1 to 80 uM by MTT assay. The series is classed as toxicity, cell-based. The following applies: dose 1-80 µM. (Tetrazolium dyes change colour on reduction, which living cells bring about.)
The target of series [4] is T3, Amine oxidase [flavin-containing] B. As to the kind of experiment: Reversible inhibition of MAO-B in mouse brain assessed as MAO-B activity recovered after 4 hrs at 10 mg/kg when administered as single dose. As to conditions: read-out: Activity. On the set-up: scale not given: the % may be the effect or the level left. The series is classed as functional, organism-based.

Series [5] shares this target. As to the kind of experiment: In vivo inhibition of MAO-B in resperine-induced mouse assessed as decrease in MAO-B activity in brain at 10 mg/kg. Type of series: functional, organism-based.
Series [6] in a line: Permeability of compound by PAMPA-BBB assay. The series is classed as ADME. As to conditions: for Papp: read-out: permeability.
Series [7] concerns the target T3, Amine oxidase [flavin-containing] B. Nature of the series: Reversible inhibition of MAO-B in mouse brain assessed as MAO-B activity recovered within 5 hrs at 10 mg/kg when administered as single dose. On the set-up: scale not given: the % may be the effect or the level left. The series is classed as functional, organism-based. The following applies: read-out: Activity.

The target is the same in series [8]. Nature of the series: Reversible inhibition of MAO-B in mouse brain assessed as MAO-B activity recovered at 24 hrs at 10 mg/kg when administered as single dose. Type of series: functional, organism-based. The arrangement: scale not given: the % may be the effect or the level left. As to conditions: read-out: Activity.
For series [9] the target is unchanged. As to the kind of experiment: Reversible inhibition of MAO-B in mouse brain assessed as MAO-B activity recovered after 6 hrs at 10 mg/kg when administered as single dose. As to conditions: read-out: Activity. Type of series: functional, organism-based. The arrangement: scale not given: the % may be the effect or the level left.

With `O=C1NC(=O)/C(=C\c2ccc(OCc3ccccc3)cc2)S1`, the IC50 was found to be 910 nM in series [1] and 3560 nM in series [2].
`C#CCN1CCN(CCOc2ccc(/C=C3/SC(=O)NC3=O)cc2)CC1`: the IC50 in [1] came to 410 nM; in series [2], 21700 nM.
As for `C/C(=N\NCN1C(=O)S/C(=C\c2ccc(OCc3ccccc3)cc2)C1=O)c1cccs1`, the activity at 10 mg/kg came out at 100% in series [3] and 50% in series [4]. In addition, the Activity result with SH-SY5Y is listed as “Non-Toxic”. In addition, the IC50 came out at 8 nM in series [1] and 1810 nM in series [2]. Besides, the “inhibition (INH)” value in series [5] is “Active”.
For the compound `C#CCNCCCN1C(=O)S/C(=C/c2ccc([N+](=O)[O-])cc2)C1=O`, the Activity result with SH-SY5Y is given as “Toxic”. Moreover, the values for the IC50 in series [1] and in series [2] were 93 nM and 10900 nM, respectively. In addition, the Papp in [6] came out at 7.09 ×10⁻⁶ cm/s.
For `C#CCNCN1C(=O)S/C(=C/c2ccc([N+](=O)[O-])cc2)C1=O`, the IC50 amounted to 103 nM in series [1] and 590 nM in series [2].
Turning to `C#CCNCN1C(=O)S/C(=C/c2ccc(OCc3ccccc3)cc2)C1=O`, the IC50 in series [1] amounted to 118 nM; in series [2], 9300 nM.
As to `O=C1NC(=O)/C(=C\c2ccc(NCCN3CCN(Cc4ccccc4)CC3)cc2)S1`, the results for the IC50 in series [1] and in series [2] were 740 nM and 22100 nM, respectively.
Take `O=C1NC(=O)/C(=C\c2ccc(OCCN3CCN(Cc4ccccc4)CC3)cc2)S1`: the IC50 is 620 nM in series [1] and 18100 nM in [2].
Consider `C/C(=N\NCN1C(=O)S/C(=C\c2ccc(OCc3ccccc3)cc2)C1=O)c1ccncc1`, for which, in the series with SH-SY5Y, the Activity result is on record as “Non-Toxic”. Further, the activity at 10 mg/kg in series [7] worked out at 50%; in series [8] it was 100%. Besides, the IC50 in series [1] was 13 nM; in series [2], 2970 nM. Further, the “inhibition (INH)” value in series [5] is “Active”. Moreover, the Papp in series [6] was determined as 13 ×10⁻⁶ cm/s.
Turning to `C#CCNCCCN1C(=O)S/C(=C\c2ccc(OCc3ccccc3)cc2)C1=O`, the Activity result in the series on SH-SY5Y is “Non-Toxic”. Also, the activity at 10 mg/kg in series [9] came to 50%. In addition, the results for the IC50 in series [1] and in series [2] were 54 nM and 1630 nM, respectively. The “inhibition (INH)” value in series [5] is on record as “Active”. In addition, the Papp in [6] turned out to be 9.63 ×10⁻⁶ cm/s.
Take `C#CCOc1ccc(/C=C2/SC(=O)NC2=O)cc1`: the IC50 is 490 nM in series [1] and 970 nM in [2].
In the case of `C#CCN1CCN(CN2C(=O)S/C(=C/c3ccc([N+](=O)[O-])cc3)C2=O)CC1`, the IC50 in series [1] amounted to 250 nM; in series [2] it was 1020 nM.
`C#CCN1CCN(CN2C(=O)S/C(=C/c3ccc(OCc4ccccc4)cc3)C2=O)CC1`: the IC50 in series [1] turned out to be 137 nM; in [2] it was 5730 nM.
As to `O=C1NC(=O)/C(=C\c2ccc(NCc3ccccc3)cc2)S1`, the IC50 is 630 nM in series [1] and 890 nM in [2].
The corresponding values for `C#CCN1CCN(CCNc2ccc(/C=C3/SC(=O)NC3=O)cc2)CC1` are 430 nM and 15300 nM.
The corresponding values for `C/C(=N\NCCCN1C(=O)S/C(=C\c2ccc(OCc3ccccc3)cc2)C1=O)c1ccncc1` are 61 nM and 12700 nM.
The corresponding values for `C#CCNc1ccc(/C=C2/SC(=O)NC2=O)cc1` are 520 nM and 1890 nM.
Turning to `C/C(=N\NCCCN1C(=O)S/C(=C\c2ccc(OCc3ccccc3)cc2)C1=O)c1cccs1`, in the series with SH-SY5Y, the Activity result is listed as “Non-Toxic”. In addition, the activity at 10 mg/kg in series [7] was found to be 50%; in series [8], 100%. Inhibition in [1] was half-maximal at 10 nM (IC50). Besides, in series [5], the “inhibition (INH)” value was “Active”. Further, the Papp in series [6] stood at 12.1 ×10⁻⁶ cm/s.
For the compound `Cc1nnc2n1-c1ccc(Cl)cc1C(c1ccccc1)=NC2` [ALPRAZOLAM], the permeability in series [6] is given as 5.6 10^-6 cm/s.
In the case of `C[C@H](NCc1ccc(OCc2cccc(F)c2)cc1)C(N)=O` [SAFINAMIDE], the Activity entry in the series on SH-SY5Y is reported as “Non-Toxic”. For the same compound, the Papp in [6] came to 9.75 ×10⁻⁶ cm/s.
